Data as given in patent US7649113B2, “Mono, di and tri cyclic compounds useful for lowering IgE concentrations” (The Research Foundation of State University of New York, priority 2003, dated 2010).

What was measured:
[1] = tested on: mice; details: cited from earlier work
[2] = tested on: IgE production; experiment: Suppression of human IgE production in vitro; type: cell-based
[3] = tested on: PBMC (peripheral blood mononuclear cells); details: patient PBMC; dose dependent manner; cited from earlier work
[4] = tested on: normal mouse spleen cells; details: cited from earlier work
[5] = tested on: dogs; details: cited from earlier work
[6] = tested on: allergic steroid dependent asthmatic patients; details: oral administration; cited from earlier work
[7] = tested on: IgE production; experiment: Suppression of murine IgE production in vivo
[8] = tested on: IgE production; experiment: Suppression of human IgE production in vivo
[9] = tested on: human whole blood cultures; details: physiological doses; cited from earlier work
[10] = tested on: rheumatoid arthritis (RA) patients; details: cited from earlier work
[11] = tested on: inducible nitric oxide synthase (iNOS); details: murine macrophages; cited from earlier work

| SMILES | ability to mount delayed-type hypersensitivity responses [1] | human IgE production [2] | anti-CD40 rhIL-4 mediated in vitro induction of IgE responses [3] | PHA/IL-4 mediated IgE response [4] | severity of osteoarthritis (OA) [5] | oral corticosteroid requirements [6] | symptoms (A.M. and P.M.) [6] | murine IgE production [7] | human IgE production [8] | mitotic responses to phytohemagglutinin [9] | therapy for early RA ([10]; RA patients) | side effects ([10]; mild and moderate RA patients) | inducible nitric oxide synthase (iNOS) expression [11] |
| --- | --- | --- | --- | --- | --- | --- | --- | --- | --- | --- | --- | --- | --- |
| C[C@H]1c2cccc(O)c2C(=O)C2=C(O)[C@]3(O)C(=O)C(C(N)=O)=C(O)[C@@H](N(C)C)[C@@H]3[C@@H](O)[C@@H]21 [doxycycline] | inhibit | suppresses | suppress | suppresses | reduced |  |  |  |  |  |  |  |  |
| CN(C)c1ccc(O)c2c1C[C@H]1C[C@H]3[C@H](N(C)C)C(=O)C(C(N)=O)=C(O)[C@@]3(O)C(=O)C1=C2O [minocycline] |  | suppresses | suppress |  | reduced | decreased | improved their symptoms | suppresses | suppresses | inhibits | appears to be an effective therapy | no side effects | inhibits |
